Entries after “also recorded” stand apart in the source; their conditions may differ.
What was measured:
c-myc mRNA = conditions: HL-60 cells; cited from earlier work
[1] = Serum calcium (standard colorimetric method); format: in vivo, Male albino Fisher-344 rats; conditions: for hypercalcemia or alterations in serum levels: dietary supplementation, serum phosphorus, 25(OH)D3, 1,25(OH)2D3 also named; for Serum Levels Cas+: mean ± S.E.M.
Source text: Male albino Fisher-344 rats, initially weighing ~90-100 g, were used in these studies. On arrival, the animals were quarantined for 1 wk and then randomly divided into the following six test groups: groups 1 and 2, standard vitamin D-sufficient diet; groups 3 and 4, standard diet supplemented with RO24-5531 (2.50 nmol/kg of feed); and groups 5 and 6, standard vitamin D-sufficient diet. […] Next, the rats in groups 2,4 and 6 were given subcutaneous injections of azoxymethane (AOM, Sigma Chemical Co., St. Louis, Mo.), 15 mg/kg body wt once a wk for 2 wks, while the rats in groups 1,3 and 5 received AOM-vehicle (saline).
Groups 1 and 2 were then maintained on the standard diet for an additional […]. Groups 3 and 4 were maintained on the RO24-5531 supplemented diets for the initial five wks and then switched to the standard diet without RO24-5531 for an additional 29 wks (initiation arm), whereas groups 5 and 6 were maintained on the standard diet without supplemental RO24-5531 for the initial five wks and then switched to the RO24-5531 supplemented diet for an additional 29 wks (post-initiation arm).
All rats were sacrificed in the non-fasting state after 34 wks on these protocols between 9 a.m. and 11 a.m. and sera obtained for measurement of calcium, phosphate, 25(OH)D3 and 1α,25(OH)2 D3 levels. The rats' colons were removed, opened, washed with normal saline and examined macroscopically for the presence of tumors. Resected tumors were weighed, and were fixed in 10% buffered formalin for microscopic examination. After formalin fixation, tissue specimens were paraffin-embedded, sectioned, and stained with hematoxylin and eosin as described previously (Sitrin et al., 1991), for light microscopic examination. All specimens were evaluated by a pathologist who was unaware of the dietary or AOM treatment history. Macroscopic and microscopic lesions were classified as either benign (adenoma) or malignant (adenocarcinoma).
Serum calcium and phosphorus were measured by standard colorimetric methods (Kessler and Wolfman, Clin. Chem. 10:686-703, 1964). Serum 25(OH)D3 levels were measured by radioimmunoassay, using a kit and procedure supplied by Incstar (Stillwater, Minn.). Serum 1α,25(OH)2 D3 levels were assayed by a non-equilibrium competitive protein-binding assay based on a calf thymus receptor, using a kit and procedure supplied by Incstar, as previously described (Sitrin et al., 1991).
Results are expressed as means ±SE of n determinations. Data were analyzed by Fisher's exact test (two-tailed) or analysis of variance (ANOVA) as appropriate (Snedecor and Cochran, Statistical Methods, 1980). Values of p <0.05 were considered statistically significant.

For C=C1/C(=C\C=C2/CCC[C@]3(C)C([C@H](C)CC#CC(O)(C(F)(F)F)C(F)(F)F)=CC[C@@H]23)C[C@@H](O)C[C@@H]1O [RO24-5531, 26,26,26,27,27,27-hexafluoro-1α,25-dihydroxy-16-ene-23-yne-cholecalciferol], the “c-myc mRNA expression” value (c-myc mRNA) is given as “decrease c-myc mRNA expression in HL-60 cells”, the “hypercalcemia or alterations in serum levels” value [1] is given as “did not result in hypercalcemia” and the “hypercalcemia or alterations in serum levels” value ([1]; listed as 1α,25-dihydroxy-16-ene-23-yne-26,27-hexafluorocholecalciferol) is given as “does not induce hypercalcemia or alterations in the serum levels of phosphorus, 25(OH)D3, or 1,25(OH)2D3; also recorded: did not induce hypercalcemia or alterations in the serum levels of phosphorus, 25(OH)D3 or 1,25(OH)2D3”. The “Serum Levels Cas+” value ([1]; group 3: RO24-5531/SD, no AOM, n=10) was 11.3 ± 0.1 mg/dL, the “Serum Levels Cas+” value ([1]; group 4: RO24-5531/SD (initiation arm), AOM, n=6) was 10.1 ± 0.4 mg/dL and the “Serum Levels Cas+” value ([1]; group 5: SD/RO24-5531, no AOM, n=14) was 10.3 ± 0.4 mg/dL. The “Serum Levels Cas+” value ([1]; group 6: SD/RO24-5531 (post-initiation arm), AOM, n=8) was 10.1 ± 0.5 mg/dL and the “effect on serum levels of calcium” value ([1]; groups 4 (initiation arm) and 6 (post-initiation arm)) was “significantly altered the serum levels of calcium, phosphorus or 25(OH)D3”.
